# From PMC12736120, “First-in-Human Phase I Clinical Trial of SLC-391, a Novel and Selective AXL Inhibitor, in Patients with Advanced Solid Tumours” (Pharmaceuticals, 2025)
# Assay: Phase I safety and tolerability (DLTs, adverse events, laboratory, ECG)
# Assay type: in vivo
# Experimental: This study employed a standard 3 + 3 dose escalation design with a starting dose of 25 mg QD. […] Dose escalation decisions took into account all available data from evaluable subjects as well as PK and the safety profile of prior dose cohorts. […] There was a minimum 5-day stagger between dosing of the first and second subjects in each dose cohort. Dose escalation decisions were made by a data review committee (DRC) composed of, at minimum, the medical monitor, at least one principal investigator, and a sponsor representative, per the study DRC Plan. Dose escalation could continue until 2 or more subjects in the same dose cohort experienced a dose-limiting toxicity (DLT). DLTs were defined as Grade 3 or 4 adverse drug reactions (ADRs), with grades as defined in the National Cancer Institute Common Toxicity Criteria for Adverse Events (NCI-CTCAE) version 5.0. […] The MTD was defined as the highest dose at which no more than 1 of 6 subjects experienced a DLT during cycle 1 of the study drug. The MTD would have been exceeded if 2 or more subjects in a dose cohort of up to 6 subjects experienced a DLT. Subjects could continue treatment until disease progression, unacceptable toxicity, death, withdrawal of consent, or loss to follow-up.
# Before enrolment in the study, all patients received a detailed medical history and physical examination. Clinical laboratory evaluations included clinical chemistry, complete blood count, urinalysis, coagulation factors, and a lipid panel. Other safety assessments included vital signs, physical examination, electrocardiogram, and echocardiogram with multigated acquisition (ECHO/MUGA). Safety assessments were performed on days 1, 8, 15, and 21 of cycle 1, and on day 1 of cycles 2 to 6.
# [1] = Grade 3, Overall Study (N = 35)
# [2] = Grade All, Overall BID (N = 15)
# [3] = Grade All, Overall Study (N = 35)
smiles,measurement,setting,value
"Nc1ncc(-c2cnn(C3CCNCC3)c2)cc1-c1nnc(CC2CC2)o1 [SLC-391, 3-(5-[cyclopropylmethyl]-1,3,4-oxadiazol-2-yl)-5-(1-[piperidin-4-yl]-1H-pyrazol-4-yl)-pyridin-2-amine]",TEAE: Metabolism and nutrition disorders,"Grade 3, Overall BID (N = 15)",0 n (%)
same,TEAE: Musculoskeletal and connective tissue disorders,"Grade 3, Overall BID (N = 15)",1 (6.7) n (%)
same,TEAE: Nausea,"Grade 3, Overall BID (N = 15)",0 n (%)
same,TEAE: Renal and urinary disorders,"Grade 3, Overall BID (N = 15)",1 (6.7) n (%)
same,"TEAE: Respiratory, thoracic, and mediastinal disorders","Grade 3, Overall BID (N = 15)",0 n (%)
same,TEAE: Skin and subcutaneous tissue disorders,"Grade 3, Overall BID (N = 15)",1 (6.7) n (%)
same,TEAE: Vascular disorders,"Grade 3, Overall BID (N = 15)",1 (6.7) n (%)
same,TEAE: Vomiting,"Grade 3, Overall BID (N = 15)",0 n (%)
same,Any treatment-emergent adverse event (TEAE),"Grade 3, Overall QD (N = 20)",6 (30.0) n (%)
same,TEAE: Blood and lymphatic system disorders,"Grade 3, Overall QD (N = 20)",1 (5.0) n (%)
same,TEAE: Diarrhoea,"Grade 3, Overall QD (N = 20)",0 n (%)
same,TEAE: Dyspnoea,"Grade 3, Overall QD (N = 20)",1 (5.0) n (%)
same,TEAE: Fatigue,"Grade 3, Overall QD (N = 20)",0 n (%)
same,TEAE: Gastrointestinal disorders,"Grade 3, Overall QD (N = 20)",3 (15.0) n (%)
same,TEAE: General disorders and administration site conditions,"Grade 3, Overall QD (N = 20)",0 n (%)
same,TEAE: Infections and infestations,"Grade 3, Overall QD (N = 20)",1 (5.0) n (%)
same,TEAE: Metabolism and nutrition disorders,"Grade 3, Overall QD (N = 20)",2 (10.0) n (%)
same,TEAE: Musculoskeletal and connective tissue disorders,"Grade 3, Overall QD (N = 20)",1 (5.0) n (%)
same,TEAE: Nausea,"Grade 3, Overall QD (N = 20)",1 (5.0) n (%)
same,TEAE: Renal and urinary disorders,"Grade 3, Overall QD (N = 20)",0 n (%)
same,"TEAE: Respiratory, thoracic, and mediastinal disorders","Grade 3, Overall QD (N = 20)",2 (10.0) n (%)
same,TEAE: Skin and subcutaneous tissue disorders,"Grade 3, Overall QD (N = 20)",0 n (%)
same,TEAE: Vascular disorders,"Grade 3, Overall QD (N = 20)",1 (5.0) n (%)
same,TEAE: Vomiting,"Grade 3, Overall QD (N = 20)",1 (5.0) n (%)
same,Any treatment-emergent adverse event (TEAE),[1],12 (34.3) n (%)
same,TEAE: Blood and lymphatic system disorders,[1],2 (5.7) n (%)
same,TEAE: Diarrhoea,[1],1 (2.9) n (%)
same,TEAE: Dyspnoea,[1],1 (2.9) n (%)
same,TEAE: Fatigue,[1],1 (2.9) n (%)
same,TEAE: Gastrointestinal disorders,[1],4 (11.4) n (%)
same,TEAE: General disorders and administration site conditions,[1],1 (2.9) n (%)
same,TEAE: Infections and infestations,[1],2 (5.7) n (%)
same,TEAE: Metabolism and nutrition disorders,[1],2 (5.7) n (%)
same,TEAE: Musculoskeletal and connective tissue disorders,[1],2 (5.7) n (%)
same,TEAE: Nausea,[1],1 (2.9) n (%)
same,TEAE: Renal and urinary disorders,[1],1 (2.9) n (%)
same,"TEAE: Respiratory, thoracic, and mediastinal disorders",[1],2 (5.7) n (%)
same,TEAE: Skin and subcutaneous tissue disorders,[1],1 (2.9) n (%)
same,TEAE: Vascular disorders,[1],2 (5.7) n (%)
same,TEAE: Vomiting,[1],1 (2.9) n (%)
same,Any treatment-emergent adverse event (TEAE),[2],15 (100.0) n (%)
same,TEAE: Abdominal distension,[2],3 (20.0) n (%)
same,TEAE: Abdominal pain,[2],0 n (%)
same,TEAE: Back pain,[2],2 (13.3) n (%)
same,TEAE: Blood and lymphatic system disorders,[2],2 (13.3) n (%)
same,TEAE: Chills,[2],4 (26.7) n (%)
same,TEAE: Constipation,[2],7 (46.7) n (%)
same,TEAE: Cough,[2],3 (20.0) n (%)
same,TEAE: Decreased appetite,[2],5 (33.3) n (%)
same,TEAE: Diarrhoea,[2],9 (60.0) n (%)
same,TEAE: Dizziness,[2],0 n (%)
same,TEAE: Dysgeusia,[2],2 (13.3) n (%)
same,TEAE: Dyspnoea,[2],5 (33.3) n (%)
same,TEAE: Fatigue,[2],10 (66.7) n (%)
same,TEAE: Gastrointestinal disorders,[2],13 (86.7) n (%)
same,TEAE: General disorders and administration site conditions,[2],12 (80.0) n (%)
same,TEAE: Haematuria,[2],4 (26.7) n (%)
same,TEAE: Headache,[2],3 (20.0) n (%)
same,TEAE: Infections and infestations,[2],7 (46.7) n (%)
same,TEAE: Investigations,[2],3 (20.0) n (%)
same,TEAE: Metabolism and nutrition disorders,[2],5 (33.3) n (%)
same,TEAE: Musculoskeletal and connective tissue disorders,[2],6 (40.0) n (%)
same,TEAE: Nausea,[2],11 (73.3) n (%)
same,TEAE: Nervous system disorders,[2],5 (33.3) n (%)
same,TEAE: Oedema peripheral,[2],2 (13.3) n (%)
same,TEAE: Psychiatric disorders,[2],3 (20.0) n (%)
same,TEAE: Pyrexia,[2],2 (13.3) n (%)
same,TEAE: Renal and urinary disorders,[2],5 (33.3) n (%)
same,"TEAE: Respiratory, thoracic, and mediastinal disorders",[2],8 (53.3) n (%)
same,TEAE: Skin and subcutaneous tissue disorders,[2],3 (20.0) n (%)
same,TEAE: Urinary tract infection,[2],3 (20.0) n (%)
same,TEAE: Vascular disorders,[2],2 (13.3) n (%)
same,TEAE: Vomiting,[2],6 (40.0) n (%)
same,TEAE: Weight decreased,[2],2 (13.3) n (%)
same,Any treatment-emergent adverse event (TEAE),"Grade All, Overall QD (N = 20)",19 (95.0) n (%)
same,TEAE: Abdominal distension,"Grade All, Overall QD (N = 20)",3 (15.0) n (%)
same,TEAE: Abdominal pain,"Grade All, Overall QD (N = 20)",5 (25.0) n (%)
same,TEAE: Back pain,"Grade All, Overall QD (N = 20)",2 (10.0) n (%)
same,TEAE: Blood and lymphatic system disorders,"Grade All, Overall QD (N = 20)",2 (10.0) n (%)
same,TEAE: Chills,"Grade All, Overall QD (N = 20)",2 (10.0) n (%)
same,TEAE: Constipation,"Grade All, Overall QD (N = 20)",7 (35.0) n (%)
same,TEAE: Cough,"Grade All, Overall QD (N = 20)",4 (20.0) n (%)
same,TEAE: Decreased appetite,"Grade All, Overall QD (N = 20)",7 (35.0) n (%)
same,TEAE: Diarrhoea,"Grade All, Overall QD (N = 20)",11 (55.0) n (%)
same,TEAE: Dizziness,"Grade All, Overall QD (N = 20)",4 (20.0) n (%)
same,TEAE: Dysgeusia,"Grade All, Overall QD (N = 20)",2 (10.0) n (%)
same,TEAE: Dyspnoea,"Grade All, Overall QD (N = 20)",7 (35.0) n (%)
same,TEAE: Fatigue,"Grade All, Overall QD (N = 20)",12 (60.0) n (%)
same,TEAE: Gastrointestinal disorders,"Grade All, Overall QD (N = 20)",17 (85.0) n (%)
same,TEAE: General disorders and administration site conditions,"Grade All, Overall QD (N = 20)",15 (75.0) n (%)
same,TEAE: Haematuria,"Grade All, Overall QD (N = 20)",1 (5.0) n (%)
same,TEAE: Headache,"Grade All, Overall QD (N = 20)",2 (10.0) n (%)
same,TEAE: Infections and infestations,"Grade All, Overall QD (N = 20)",4 (20.0) n (%)
same,TEAE: Investigations,"Grade All, Overall QD (N = 20)",5 (25.0) n (%)
same,TEAE: Metabolism and nutrition disorders,"Grade All, Overall QD (N = 20)",9 (45.0) n (%)
same,TEAE: Musculoskeletal and connective tissue disorders,"Grade All, Overall QD (N = 20)",8 (40.0) n (%)
same,TEAE: Nausea,"Grade All, Overall QD (N = 20)",13 (65.0) n (%)
same,TEAE: Nervous system disorders,"Grade All, Overall QD (N = 20)",10 (50.0) n (%)
same,TEAE: Oedema peripheral,"Grade All, Overall QD (N = 20)",2 (10.0) n (%)
same,TEAE: Psychiatric disorders,"Grade All, Overall QD (N = 20)",2 (10.0) n (%)
same,TEAE: Pyrexia,"Grade All, Overall QD (N = 20)",3 (15.0) n (%)
same,TEAE: Renal and urinary disorders,"Grade All, Overall QD (N = 20)",1 (5.0) n (%)
same,"TEAE: Respiratory, thoracic, and mediastinal disorders","Grade All, Overall QD (N = 20)",11 (55.0) n (%)
same,TEAE: Skin and subcutaneous tissue disorders,"Grade All, Overall QD (N = 20)",7 (35.0) n (%)
same,TEAE: Urinary tract infection,"Grade All, Overall QD (N = 20)",1 (5.0) n (%)
same,TEAE: Vascular disorders,"Grade All, Overall QD (N = 20)",3 (15.0) n (%)
same,TEAE: Vomiting,"Grade All, Overall QD (N = 20)",11 (55.0) n (%)
same,TEAE: Weight decreased,"Grade All, Overall QD (N = 20)",4 (20.0) n (%)
same,Any treatment-emergent adverse event (TEAE),[3],34 (97.1) n (%)
same,TEAE: Abdominal distension,[3],6 (17.1) n (%)
same,TEAE: Abdominal pain,[3],5 (14.3) n (%)
same,TEAE: Back pain,[3],4 (11.4) n (%)
same,TEAE: Blood and lymphatic system disorders,[3],4 (11.4) n (%)
same,TEAE: Chills,[3],6 (17.1) n (%)
same,TEAE: Constipation,[3],14 (40.0) n (%)
same,TEAE: Cough,[3],7 (20.0) n (%)
same,TEAE: Decreased appetite,[3],12 (34.3) n (%)
same,TEAE: Diarrhoea,[3],20 (57.1) n (%)
same,TEAE: Dizziness,[3],4 (11.4) n (%)
same,TEAE: Dysgeusia,[3],4 (11.4) n (%)
same,TEAE: Dyspnoea,[3],12 (34.3) n (%)
same,TEAE: Fatigue,[3],22 (62.9) n (%)
same,TEAE: Gastrointestinal disorders,[3],30 (85.7) n (%)
same,TEAE: General disorders and administration site conditions,[3],27 (77.1) n (%)
same,TEAE: Haematuria,[3],5 (14.3) n (%)
same,TEAE: Headache,[3],5 (14.3) n (%)
same,TEAE: Infections and infestations,[3],11 (31.4) n (%)
same,TEAE: Investigations,[3],8 (22.9) n (%)
same,TEAE: Metabolism and nutrition disorders,[3],14 (40.0) n (%)
